This is an account of results in patent US6287840A (Axys Pharmaceuticals, Inc., priority 1999, dated 2001).

For data set [1], the target named is T1, Cathepsin L from rat liver (Rattus norvegicus, UniProt P07154).
T1 construct: Cathepsin L from rat liver; from tissue; host or cells: rat liver
Put plainly: Inhibition of cathepsin L, Z-Phe-Arg-AMC fluorescence progress curves. It is filed as biochemical. Put shortly: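 Progress curves of AMC release (380/460 nm) over at least 3 inactivation half-times were fitted to kobs, reported as kobs/[I] or, via 1/[I] vs 1/kobs, kirr, KI (substrate-corrected) and kirr/KI.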

The target in data set [2] is T2, Cathepsin B from human placenta (Homo sapiens, UniProt P07858).
T2 construct: Cathepsin B from human placenta, obtained from Sigma; purchased Sigma; host or cells: human placenta (tissue)
Put plainly: Inhibition of cathepsin B, Z-Arg-Arg-AMC fluorescence progress curves. The format is biochemical. The conditions noted are these: 25° C., pH 6.2. The method, boiled down: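 Human placental enzyme (~10 nM) in 50 mM phosphate pH 6.2 with 2.5 mM DTT and 2.5 mM EDTA, 50 μM Z-Arg-Arg-AMC, inhibitors 30-0.001 μM, 25° C. AMC fluorescence (ex 380/em 460 nm) progress curves fitted for kobs; kobs/[I] reported, with kirr, KI and kirr/KI substrate-corrected for selected compounds.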

Data set [3] concerns P. carinii. Put plainly: Growth of P. carinii in vitro. Conditions: 10 mM each. It is filed as cell-based. As for the experimental part:
Mu-Leu-HphVSPh and Mu-Phe-LysVSPh.HBr were evaluated for their effects on the growth of P. carinii in vitro, according to the procedure of M. S. Bartlett et al. [Antimicrotubule Benzimidazoles Inhibit In Vitro Growth of P. carinii, M. S. Bartlett, T. D. Edlind, M. M. Durkin, M. M. Shaw, S. F. Queener, and J. W. Smith, (1992) Antimicrobial Agents and Chemotherapy, 36, 779-782; Antimicrobial susceptibility of P. carinii in culture, M. S. Bartlett, R. Eichholtz, and J. W. Smith (1985) Diagn. Microbiol. Infect. Dis.; 3, 381-387. Mu-Leu-HphVSPh and Mu-Phe-LysVSPh.HBr (10 mM each) inhibited the growth of P. carinii 64% and 50% respectively.

Data set [4] deals with T3, Cloned cathepsin S (Homo sapiens, UniProt P25774).
T3 construct: made in house
T3 sequence (P25774 115-331): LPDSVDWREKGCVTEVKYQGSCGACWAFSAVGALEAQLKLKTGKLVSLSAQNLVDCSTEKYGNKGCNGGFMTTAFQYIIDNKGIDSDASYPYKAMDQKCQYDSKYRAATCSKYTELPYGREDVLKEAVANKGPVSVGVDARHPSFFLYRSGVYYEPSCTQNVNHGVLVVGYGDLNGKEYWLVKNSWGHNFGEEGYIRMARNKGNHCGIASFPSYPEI
As to the kind of experiment: Inhibition of cathepsin S, Z-Val-Val-Arg-AMC fluorescence progress curves. It is filed as biochemical. Conditions: values marked *; 25° C., pH 6.5. The method, boiled down:
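Progress curves at 25 °C in 100 mM phosphate pH 6.5, 2.5 mM DTT, 2.5 mM EDTA, 0.01% Triton, enzyme <1 nM, 10 μM substrate, inhibitors 30-0.001 μM; AMC fluorescence ex 380/em 460 nm. kobs from nonlinear fits gave kobs/[I]; selected compounds yielded kirr, KI (substrate-corrected), kirr/KI.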

Data set [5] concerns the target cruzain, from T. cruzi (Trypanosoma cruzi, UniProt P25779). As to the kind of experiment: Inhibition of cruzain, as for cathepsin L. It is filed as biochemical. The conditions noted are these: values marked *. The method, boiled down: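 Run as for cathepsin L with 1 nM cruzain in 50 mM phosphate pH […], 2.5 mM DTT, 2.5 mM EDTA, 5 μM Z-Phe-Arg-AMC, at 25 °C, inhibitors 30-0.001 μM; fluorescence (ex 380/em 460 nm) followed continuously. kobs fitted from progress curves and kobs/[I] reported; selected compounds gave kirr, KI, kirr/KI, with KI corrected by (1+[S]/Km).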

Data set [6] concerns calpain. As to the kind of experiment: Inhibition (inactivation) of calpain, Suc-Leu-Tyr-AMC. It is filed as biochemical. The conditions noted are these: values marked * (or %); pH 7.5, 5 mM CaCl2, 25° C. Here is the method:
The inhibitors were tested against calpain at 1 or 2% as for the other enzymes. The reaction conditions were 50 mM Tris, pH 7.5, 5 mM CaCl2, 2.5 mM DTT, assayed at 25° C. The substrate was 100 μM Suc-Leu-Tyr-AMC.

Data set [7] relates to human malarial parasite Plasmodium falciparum. Put plainly: In vitro protease activity of malarial parasite, substrate Z-Phe-Arg-AMC. The conditions noted are these: cells printed in nM; read-out: P. falciparum IC50 (human). It is filed as biochemical. The text has this: (§1) The following table summarizes the comparative IC50 values for selected cysteine protease inhibitors against the human malarial parasite Plasmodium falciparum and the mouse malarial parasite Plasmodium vinckei. The substrate used to measure in vitro protease activity was Z-Phe-Arg-AMC.

In data set [8] the test system is mouse malarial parasite Plasmodium vinckei. Described as above. The conditions noted are these: cells printed in nM; read-out: P. vinckei IC50 (murine). It is filed as biochemical.
From the text: as §1

A short description of data set [9]: Stability of selected inhibitors toward glutathione (Ellmans reagent). The format is physicochemical. Conditions: inhibitor 5 mM, GSH 0.3 mM, pH=6.2, 20° C. Here is the method: The inhibitors (5 mM) were incubated with glutathione (GSH) (0.3 mM) in phosphate buffer (50 mM) at pH=6.2 containing 15% DMF at 20° C. Periodically, 50 μL samples were added to 1 mL of buffer and treated with 10 μL of 30 mM Ellmans reagent and the absorbance measured at 412 nm.

Data set [10] relates to T. cruzi. As to the kind of experiment: T. cruzi infected irradiated J774 cells. It is filed as cell-based. The arrangement: dose or concentration left out as unconfirmed. The conditions noted are these: thereafter without inhibitor; compounds listed in decreasing order of effectiveness. Here is the method: Irradiated J774 cells were infected with T. cruzi and simultaneously treated with […] of peptidyl vinyl derivatives for 5 days; thereafter without inhibitor. The following compounds were effective in decreasing order: Mu-Phe-ArgVSPh, Boc-Tyr(I2)-HphVSPh, Mu-Phe-VaIVSPh, Boc-Tic-HphVSPh, Mu-Phe-Ser(OBzl)VSPh, Mu-Leu-HphVSPh, Mu-Tyr(I2)-HphVSPh, Mu-Phe-LysVSPh, Mu-Tic-HphVSPh.

Where only a bound is given, the exact number is not on record here.

T1 sequence (P07154 114-288 limits assumed): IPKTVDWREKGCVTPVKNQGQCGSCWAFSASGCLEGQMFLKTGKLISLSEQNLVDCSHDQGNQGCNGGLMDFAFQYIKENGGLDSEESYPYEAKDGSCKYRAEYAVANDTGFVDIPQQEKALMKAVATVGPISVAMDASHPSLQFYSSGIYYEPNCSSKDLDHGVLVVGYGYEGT
T1 sequence (P07154 291-334 limits assumed): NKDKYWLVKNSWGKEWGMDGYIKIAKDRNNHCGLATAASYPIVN
Chain of cruzain, from T. cruzi (P25779 123-337 limits assumed): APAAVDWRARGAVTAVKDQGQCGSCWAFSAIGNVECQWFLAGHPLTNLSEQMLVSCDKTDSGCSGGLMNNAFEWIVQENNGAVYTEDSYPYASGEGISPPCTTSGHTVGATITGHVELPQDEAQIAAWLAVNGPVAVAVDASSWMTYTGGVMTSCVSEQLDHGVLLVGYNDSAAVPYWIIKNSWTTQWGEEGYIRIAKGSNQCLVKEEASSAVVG

In [1], `Br.NCCCC[C@@H](/C=C/S(=O)(=O)c1ccccc1)NC(=O)[C@H](Cc1ccccc1)NC(=O)N1CCOCC1` [Mu-Phe-LysVSPh.HBr, (G)-(E)-7-amino-3-(4-morpholinecarbonylphenylalanyl)amino-1-phenylsulfonyl-1-heptene hydrobromide] gave a kirr of 0.16 s⁻¹. Further, the affinity in data set [1] (corrected for substrate) corresponds to a Ki of 1400 nM. Also, the “kobs /[I]* (approximate second-order inactivation constant)” value in data set [1] (values marked *, 25° C., pH 6.2) is on record as 220,000 M^-1 sec^-1; in data set [2] (values marked *) it was 11,300 M^-1 sec^-1; in data set [4], 10,700,000 M^-1 sec^-1; in data set [5], 149,000 M^-1 sec^-1. The “k/KI (kirr/KI)” value in data set [1] (values without asterisk, 25° C., pH 6.2) is recorded as 110,000 M^-1 sec^-1; in data set [2] (values without asterisk), 11,700 M^-1 sec^-1. In addition, the “inhibition of the growth of P. carinii” value in [3] came out at 50%. The “kobs /[I]*” value in data set [6] is below 50 M⁻¹ s⁻¹. Besides, the IC50 in [7] was found to be 100 nM; in data set [8], 60 nM. The “second order rate constant for the loss of GSH” value in data set [9] stood at 0.00055 M⁻¹ s⁻¹. Further, in data set [10], the “effectiveness against T. cruzi in J774 cells” value is “effective”.
